molecular target: T1, Full length human recombinant HDAC8 protein (Homo sapiens, UniProt Q9BY41); test: In vitro histone deacetylase assay: enzymatic HDAC8 electrophoretic mobility shift assay; format: biochemical; settings: not given
T1 construct: Full length human recombinant HDAC8 protein was expressed in baculoviral system; made in house
T1 sequence (Q9BY41 1-377): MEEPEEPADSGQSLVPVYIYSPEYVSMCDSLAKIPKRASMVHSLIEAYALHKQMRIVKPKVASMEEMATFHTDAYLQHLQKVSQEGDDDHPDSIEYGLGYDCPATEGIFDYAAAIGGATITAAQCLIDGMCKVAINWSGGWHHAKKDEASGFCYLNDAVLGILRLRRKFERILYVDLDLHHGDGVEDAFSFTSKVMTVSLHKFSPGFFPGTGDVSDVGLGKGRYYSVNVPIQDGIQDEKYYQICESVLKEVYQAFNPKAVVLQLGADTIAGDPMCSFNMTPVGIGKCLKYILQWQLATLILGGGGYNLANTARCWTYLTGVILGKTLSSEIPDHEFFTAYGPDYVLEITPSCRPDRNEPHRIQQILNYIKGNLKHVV

IC50	SMILES
100 to 1000 nM	CN(C(=O)CN1C(=O)COc2ccc(C(=O)NO)cc21)C1CC1 [Compound I-51, 4-(2-(cyclopropyl(methyl)amino)-2-oxoethyl)-N-hydroxy-3-oxo-3,4-dihydro-2H-benzo[b][1,4]oxazine-6-carboxamide]

same assay, conditions: electrophoretic mobility shift assay; enzyme 1 nM; 2 μM fluorescently labeled peptide substrate RHKK(Ac)-NH2; 25° C.; 12 concentrations; read-out: HDAC8 IC50

IC50	SMILES
25 to 100 nM	O=C(NO)c1ccc2c(c1)N(Cc1ccc(C(F)(F)F)cc1)CCO2 [Compound I-119, N-hydroxy-4-(4-(trifluoromethyl)benzyl)-3,4-dihydro-2H-benzo[b][1,4]oxazine-6-carboxamide]
100 to 1000 nM	CCn1c(CN2C(=O)COc3ccc(C(=O)NO)cc32)nc2ccc(Cl)cc21 [Compound I-269, 4-((6-chloro-1-ethyl-1H-benzo[d]imidazol-2-yl)methyl)-N-hydroxy-3-oxo-3,4-dihydro-2H-benzo[b][1,4]oxazine-6-carboxamide]
25 to 100 nM	CC1Oc2ccc(C(=O)NO)cc2N(Cc2ccccc2)C1=O (centres unmarked) [Compound I-153, 4-benzyl-N-hydroxy-2-methyl-3-oxo-3,4-dihydro-2H-benzo[b][1,4]oxazine-6-carboxamide]
25 to 100 nM	CCCCCN1CCOc2ccc(C(=O)NO)cc21 [Compound I-78, N-hydroxy-4-pentyl-3,4-dihydro-2H-benzo[b][1,4]oxazine-6-carboxamide]
> 1000 nM	O=C(NO)c1ccc2c(c1)N(C(=O)N1CCCCC1)CCO2 [Compound I-97, N-hydroxy-4-(piperidine-1-carbonyl)-3,4-dihydro-2H-benzo[b][1,4]oxazine-6-carboxamide]
25 to 100 nM	O=C(NO)c1ccc2c(c1)N(Cc1ccccc1SC(F)(F)F)C(=O)CO2 [Compound I-262, N-hydroxy-3-oxo-4-(2-((trifluoromethyl)thio)benzyl)-3,4-dihydro-2H-benzo[b][1,4]oxazine-6-carboxamide]
> 1000 nM	O=C(NO)c1ccc2c(c1)N(CC(=O)N1CCOCC1)CCO2 [Compound I-26, N-hydroxy-4-(2-morpholino-2-oxoethyl)-3,4-dihydro-2H-benzo[b][1,4]oxazine-6-carboxamide]
25 to 100 nM	CC(c1ccccc1F)N1C(=O)COc2ccc(C(=O)NO)cc21 (centres unmarked) [Compound I-95, 4-(1-(2-fluorophenyl)ethyl)-N-hydroxy-3-oxo-3,4-dihydro-2H-benzo[b][1,4]oxazine-6-carboxamide]
< 25 nM	CS(=O)(=O)c1ccc(CN2CCOc3ccc(C(=O)NO)cc32)c(Cl)c1 [Compound I-134, 4-(2-chloro-4-(methylsulfonyl)benzyl)-N-hydroxy-3,4-dihydro-2H-benzo[b][1,4]oxazine-6-carboxamide]
> 1000 nM	O=C(NO)c1ccc2c(c1)N(C(=O)c1ccccc1)CCO2 [Compound I-140, 4-benzoyl-N-hydroxy-3,4-dihydro-2H-benzo[b][1,4]oxazine-6-carboxamide]
100 to 1000 nM	COc1ccc(CN2C(=O)C3(CCCCC3)Oc3ccc(C(=O)NO)cc32)cc1 [Compound I-158, N-hydroxy-4-(4-methoxybenzyl)-3-oxo-3,4-dihydrospiro[benzo[b][1,4]oxazine-2,1′-cyclohexane]-6-carboxamide]
100 to 1000 nM	O=C(NO)c1ccc2c(c1)N(Cc1nc3ccccc3n1CC1CC1)CCO2 [Compound I-30, 4-((1-(cyclopropylmethyl)-1H-benzo[d]imidazol-2-yl)methyl)-N-hydroxy-3,4-dihydro-2H-benzo[b][1,4]oxazine-6-carboxamide]
> 1000 nM	O=C(NO)c1cccc2c1CCCN2c1nc2ccccc2[nH]1 [Compound I-14, 1-(1H-1,3-benzodiazol-2-yl)-N-hydroxy-1,2,3,4-tetrahydroquinoline-5-carboxamide]
100 to 1000 nM	O=C(NO)c1ccc2c(c1)N(Cc1ccccn1)C(=O)CO2 [Compound I-61, N-hydroxy-3-oxo-4-(pyridin-2-ylmethyl)-3,4-dihydro-2H-benzo[b][1,4]oxazine-6-carboxamide]
25 to 100 nM	O=C(NO)c1ccc2c(c1)N(Cc1ccc(Cl)cc1)CCO2 [Compound I-118, 4-(4-chlorobenzyl)-N-hydroxy-3,4-dihydro-2H-benzo[b][1,4]oxazine-6-carboxamide]
100 to 1000 nM	Cc1ccccc1CN1C(=O)COc2ccc(C(=O)NO)cc21 [Compound I-148, N-hydroxy-4-(2-methylbenzyl)-3-oxo-3,4-dihydro-2H-benzo[b][1,4]oxazine-6-carboxamide]
25 to 100 nM	O=C(NO)c1ccc2c(c1)OC(C(=O)N1CC3(CC3)c3ccccc31)CN2Cc1ccccc1 (centres unmarked) [Compound I-10, 4-benzyl-N-hydroxy-2-(spiro[cyclopropane-1,3′-indoline]-1′-carbonyl)-3,4-dihydro-2H-benzo[b][1,4]oxazine-7-carboxamide]
25 to 100 nM	Cc1cccc(CN2CCOc3ccc(C(=O)NO)cc32)c1 [Compound I-122, N-hydroxy-4-(3-methylbenzyl)-3,4-dihydro-2H-benzo[b][1,4]oxazine-6-carboxamide]
100 to 1000 nM	O=C(NO)c1ccc2c(c1)N(Cc1ccccc1C(F)(F)F)CCO2 [Compound I-129, N-hydroxy-4-(2-(trifluoromethyl)benzyl)-3,4-dihydro-2H-benzo[b][1,4]oxazine-6-carboxamide]

IC50	SMILES
100 to 1000 nM	C=CCN1C(=O)COc2ccc(C(=O)NO)cc21 [Compound I-41, 4-allyl-N-hydroxy-3-oxo-3,4-dihydro-2H-benzo[b][1,4]oxazine-6-carboxamide]
100 to 1000 nM	CC1CN(Cc2ccc(S(C)(=O)=O)cc2)c2cc(C(=O)NO)ccc2O1 (centres unmarked) [Compound I-85, N-hydroxy-2-methyl-4-(4-(methylsulfonyl)benzyl)-3,4-dihydro-2H-benzo[b][1,4]oxazine-6-carboxamide]
25 to 100 nM	COc1ccc(CN2CC(C)Oc3ccc(C(=O)NO)cc32)cc1 (centres unmarked) [Compound I-84, N-hydroxy-4-(4-methoxybenzyl)-2-methyl-3,4-dihydro-2H-benzo[b][1,4]oxazine-6-carboxamide]
100 to 1000 nM	COc1ccccc1CN1CCOc2ccc(C(=O)NO)cc21 [Compound I-126, N-hydroxy-4-(2-methoxybenzyl)-3,4-dihydro-2H-benzo[b][1,4]oxazine-6-carboxamide]
100 to 1000 nM	COCCN1C(=O)COc2ccc(C(=O)NO)cc21 [Compound I-43, N-hydroxy-4-(2-methoxyethyl)-3-oxo-3,4-dihydro-2H-benzo[b][1,4]oxazine-6-carboxamide]
100 to 1000 nM	CC1CN(Cc2ccccc2)c2cc(C(=O)NO)ccc2O1 (centres unmarked) [Compound I-83, 4-benzyl-N-hydroxy-2-methyl-3,4-dihydro-2H-benzo[b][1,4]oxazine-6-carboxamide]
< 25 nM	O=C(NO)c1ccc2c(c1)N(Cc1cccc(-c3ccccc3)c1)C(=O)CO2 [Compound I-75, 4-([1,1′-biphenyl]-3-ylmethyl)-N-hydroxy-3-oxo-3,4-dihydro-2H-benzo[b][1,4]oxazine-6-carboxamide]
< 25 nM	O=C(NO)c1ccc2c(c1)N(Cc1ccccc1F)C(=O)CO2 [Compound I-69, 4-(2-fluorobenzyl)-N-hydroxy-3-oxo-3,4-dihydro-2H-benzo[b][1,4]oxazine-6-carboxamide]
25 to 100 nM	O=C(NO)c1ccc2c(c1)N(Cc1ccc(OC(F)(F)F)cc1)CCO2 [Compound I-19, N-hydroxy-4-(4-(trifluoromethoxy)benzyl)-3,4-dihydro-2H-benzo[b][1,4]oxazine-6-carboxamide]
100 to 1000 nM	CS(=O)(=O)c1ccccc1CN1CCOc2ccc(C(=O)NO)cc21 [Compound I-130, N-hydroxy-4-(2-(methylsulfonyl)benzyl)-3,4-dihydro-2H-benzo[b][1,4]oxazine-6-carboxamide]
100 to 1000 nM	COCCn1c(CN2CCOc3ccc(C(=O)NO)cc32)nc2ccccc21 [Compound I-29, N-hydroxy-4-((1-(2-methoxyethyl)-1H-benzo[d]imidazol-2-yl)methyl)-3,4-dihydro-2H-benzo[b][1,4]oxazine-6-carboxamide]
25 to 100 nM	O=C(NO)c1ccc2c(c1)N(Cc1ccccc1)C(=O)CO2 [Compound I-32, 4-benzyl-N-hydroxy-3-oxo-3,4-dihydro-2H-benzo[b][1,4]oxazine-6-carboxamide]
< 25 nM	O=C(NO)c1ccc2c(c1)N(Cc1cccc(S(=O)(=O)C(F)(F)F)c1)CCS2(=O)=O [Compound I-15, N-hydroxy-4-(3-((trifluoromethyl)sulfonyl)benzyl)-3,4-dihydro-2H-benzo[b][1,4]thiazine-6-carboxamide-1,1-dioxide]
25 to 100 nM	COc1ccc(CN2C(=O)C(CCN(C)C)Oc3ccc(C(=O)NO)cc32)cc1 (centres unmarked) [Compound I-105, 2-(2-(dimethylamino)ethyl)-N-hydroxy-4-(4-methoxybenzyl)-3-oxo-3,4-dihydro-2H-benzo[b][1,4]oxazine-6-carboxamide]
25 to 100 nM	CC(c1ccccc1)N1C(=O)COc2ccc(C(=O)NO)cc21 (centres unmarked) [Compound I-67, N-hydroxy-3-oxo-4-(1-phenylethyl)-3,4-dihydro-2H-benzo[b][1,4]oxazine-6-carboxamide]
100 to 1000 nM	COc1ccc(S(=O)(=O)N2CCOc3ccc(C(=O)NO)cc32)cc1 [Compound I-87, N-hydroxy-4-((4-methoxyphenyl)sulfonyl)-3,4-dihydro-2H-benzo[b][1,4]oxazine-6-carboxamide]
100 to 1000 nM	COc1ccc(C(=O)N2CCCc3ccc(C(=O)NO)cc32)cc1 [Compound I-112, N-hydroxy-1-(4-methoxybenzoyl)-1,2,3,4-tetrahydroquinoline-7-carboxamide]
25 to 100 nM	CN1CC(C(=O)NCc2ccccc2)Oc2cc(C(=O)NO)ccc21 (centres unmarked) [Compound I-11, N^2-benzyl-N^7-hydroxy-4-methyl-3,4-dihydro-2H-benzo[b][1,4]oxazine-2,7-dicarboxamide]

From patent US10370343B2, “[6,6] Fused bicyclic HDAC8 inhibitors” (FORMA Therapeutics, Inc., priority 2015, dated 2019)
